Reference: US20090215782A1, “Use of PDE-5 Inhibitors for Endothelial Repair of Tissues Impaired by Trauma or Disease” (priority 2005, published 2009)

How the values were obtained:
[1] = tested on: haematological and bone marrow tissues; conditions: chronic administration; cited from earlier work
[2] = tested on: circulating endothelial progenitor cells (EPCs); assay: Concentration of circulating EPCs (CD34/AC133 double positive) in peripheral blood by flow cytometry after oral Vardenafil 20 mg, placebo crossover; assay type: in vivo, human; conditions: healthy men, mean±SD
Experimental: 10 healthy men without cardiovascular risk factors were selected for the study. The ages of the 10 men ranged from 21 to 25 years. Blood samples taken for the purposes of the study were evaluated by flow cytometry, as previously described (Scheubel R. J., Zorn H., Silber R. E., Kuss O., Morawietz H., Holtz J., Simm A. Age-dependent depression in circulating endothelial cell progenitor cells in patients undergoing coronary artery bypass grafting. J Am Coll Cardiol. 42, 2073-2080,2003).
Control samples from each subject were examined to validate the study. The samples were obtained in triplicate, on different days and at different hours of the day and examined. No significant variability was found among the subjects.
Subjects were randomly allocated to two groups of five subjects. The first group received Vardenafil 20 mg on the first visit and a placebo one week later. The second group received the placebo on the first visit and Vardenafil 20 mg one week later. […]
Analysis was performed on a sample of 150 μl of peripheral blood extracted from each subject. […] After incubation, the cells were lysed in NH4Cl lysis buffer, washed twice with PBS 1% FCS and then analysed by flow cytometry.
With reference to FIG. 1, forward and side scatter gates were set to include all viable mononuclear cells; into this gate 500,000 events were acquired. […] Cells were scored using a FACSCalibur analyzer (Becton Dickinson Immunocytometry Systems, San Jose, Calif., USA) and data processing using the CellQuest software programmes (Becton Dickinson Immunocytometry Systems).
The percentage of EPCs, in each subject, was calculated by dividing the number of double positive events by the number of total events. The total number of EPCs per volume, of each subject, per volume was calculated by multiplying the percentage of EPCs with the leukocyte count. The data is expressed as mean±SD. Comparisons of the total number of EPCs at baseline, and at two and four hours after the administration of either Vardenafil 20 mg or the placebo were analyzed by the Student's t-test for matched data. […]

SMILES | bone marrow density (indicated by a decrease in adipose tissue percentage) [1] | lymphomonocytic component count [1] | mean increase in EPCs after Vardenafil administration ([2]; four hours after Vardenafil 20 mg vs baseline) | percentage increase of circulating EPCs with respect to baseline ([2]; four hours after Vardenafil 20 mg) | concentration of EPCs ([2]; four hours after administration of Vardenafil 20 mg, baseline 1849.7±384.3, p<0.001)
CCCOc1ccc(S(=O)(=O)NCCC2CCCN2C)cc1-c1nc2c(CCC)nn(C)c2c(=O)[nH]1 (centres unmarked) [DA-8159] | increase | increase |  |  | 
CCCc1nc(C)c2c(=O)[nH]c(-c3cc(S(=O)(=O)N4CCN(CC)CC4)ccc3OCC)nn12 [Vardenafil] |  |  | 795.7±176.7 EPCs/Ml | 44.1±16.5% | 2645.4±509.5 EPC/mL
